For the first assay, the target named is T1, Somatostatin receptor type 3 (Mus musculus, UniProt P30935). Kind of assay: Antagonist activity at mouse SSTR3 expressed in CHO cells assessed as cAMP level by fluorescence analysis. Type of assay: functional, cell-based.
T1 sequence (P30935 whole entry): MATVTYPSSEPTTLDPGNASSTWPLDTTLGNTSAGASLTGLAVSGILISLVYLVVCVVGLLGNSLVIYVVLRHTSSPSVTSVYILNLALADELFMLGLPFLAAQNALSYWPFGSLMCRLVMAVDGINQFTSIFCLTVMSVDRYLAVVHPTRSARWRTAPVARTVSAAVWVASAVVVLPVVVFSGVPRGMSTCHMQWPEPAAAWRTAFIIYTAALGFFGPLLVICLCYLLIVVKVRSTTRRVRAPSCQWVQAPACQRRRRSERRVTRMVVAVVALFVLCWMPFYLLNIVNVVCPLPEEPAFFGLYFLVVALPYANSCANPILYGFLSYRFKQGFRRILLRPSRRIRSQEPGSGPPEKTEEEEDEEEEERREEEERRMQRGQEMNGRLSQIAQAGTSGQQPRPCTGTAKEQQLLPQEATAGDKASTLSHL
Details: not given
For orientation: Cyclic AMP is a second messenger, typically raised through Gs and lowered through Gi signalling.
Chain of Somatostatin receptor type 3 (Mus musculus) (P30935 whole entry): as above
Regarding `CCOC(=O)c1cccc(C2(c3cnn(C)c3)N[C@@H](c3nc(-c4ccc(F)cc4)c[nH]3)Cc3c2[nH]c2ccccc32)n1` (single isomer, unassigned; 6B) [listing 1 of 2 here], the IC50 was 3.48 nM.
As to `CCOC(=O)c1ccc(C2(c3cnn(C)c3)N[C@@H](c3nc(-c4ccc(F)cc4)c[nH]3)Cc3c2[nH]c2ccccc32)nc1` (single isomer, unassigned; 9A) [listing 1 of 2 here], the IC50 was 1.53 nM.
Turning to `CCOC(=O)c1ccc(C2(c3cnn(C)c3)N[C@@H](c3nc(-c4ccc(F)cc4)c[nH]3)Cc3c2[nH]c2ccccc32)nc1` (single isomer, unassigned; 9B) [listing 1 of 2 here], the 50% inhibitory concentration (IC50) was found to be 14.2 nM.

A further assay concerns the target Somatostatin receptor type 3 (Mus musculus) (UniProt P30935). Kind of assay: Antagonist activity at mouse SSTR3 expressed in CHO cells assessed as cAMP level by fluorescence analysis relative to control. Type of assay: functional, cell-based. Details: concentration or dose not given beside the values. To be noted: concentration not given here.
For `Cn1cc(C2(c3cccc(C(=O)O)n3)N[C@@H](c3nc(-c4ccc(F)cc4)c[nH]3)Cc3c2[nH]c2ccccc32)cn1` (single isomer, unassigned; 2A), the inhibition is 101%.
With `Cn1cc(C2(c3cccc(C(=O)O)n3)N[C@@H](c3nc(-c4ccc(F)cc4)c[nH]3)Cc3c2[nH]c2ccccc32)cn1` (single isomer, unassigned; 2B), the inhibition is 69%.
In the case of `Cn1cc(C2(c3cc(C(=O)O)ccn3)N[C@@H](c3nc(-c4ccc(F)cc4)c[nH]3)Cc3c2[nH]c2ccccc32)cn1` (single isomer, unassigned; 3A), the inhibition was found to be 81%.
For the compound `Cn1cc(C2(c3cc(C(=O)O)ccn3)N[C@@H](c3nc(-c4ccc(F)cc4)c[nH]3)Cc3c2[nH]c2ccccc32)cn1` (single isomer, unassigned; 3B), the inhibition came to 70%.
As for `Cn1cc(C2(c3ccc(C(=O)O)cn3)N[C@@H](c3nc(-c4ccc(F)cc4)c[nH]3)Cc3c2[nH]c2ccccc32)cn1` (single isomer, unassigned; 5A), the inhibition is 87%.
For the compound `Cn1cc(C2(c3ccc(C(=O)O)cn3)N[C@@H](c3nc(-c4ccc(F)cc4)c[nH]3)Cc3c2[nH]c2ccccc32)cn1` (single isomer, unassigned; 5B), the inhibition is 51%.
`CCOC(=O)c1cccc(C2(c3cnn(C)c3)N[C@@H](c3nc(-c4ccc(F)cc4)c[nH]3)Cc3c2[nH]c2ccccc32)n1` (single isomer, unassigned; 6A): the inhibition turned out to be 80%.
On the same count and under the same terms, the figure for `CCOC(=O)c1cccc(C2(c3cnn(C)c3)N[C@@H](c3nc(-c4ccc(F)cc4)c[nH]3)Cc3c2[nH]c2ccccc32)n1` (single isomer, unassigned; 6B) [listing 2 of 2 here] is 87%; for `CCOC(=O)c1ccc(C2(c3cnn(C)c3)N[C@@H](c3nc(-c4ccc(F)cc4)c[nH]3)Cc3c2[nH]c2ccccc32)nc1` (single isomer, unassigned; 9A) [listing 2 of 2 here] it is 96%.
Regarding `CCOC(=O)c1ccc(C2(c3cnn(C)c3)N[C@@H](c3nc(-c4ccc(F)cc4)c[nH]3)Cc3c2[nH]c2ccccc32)nc1` (single isomer, unassigned; 9B) [listing 2 of 2 here], the inhibition was determined as 66%.

The target of another assay is T2, Somatostatin receptor type 3 (Homo sapiens, UniProt P32745).
T2 sequence (P32745 whole entry): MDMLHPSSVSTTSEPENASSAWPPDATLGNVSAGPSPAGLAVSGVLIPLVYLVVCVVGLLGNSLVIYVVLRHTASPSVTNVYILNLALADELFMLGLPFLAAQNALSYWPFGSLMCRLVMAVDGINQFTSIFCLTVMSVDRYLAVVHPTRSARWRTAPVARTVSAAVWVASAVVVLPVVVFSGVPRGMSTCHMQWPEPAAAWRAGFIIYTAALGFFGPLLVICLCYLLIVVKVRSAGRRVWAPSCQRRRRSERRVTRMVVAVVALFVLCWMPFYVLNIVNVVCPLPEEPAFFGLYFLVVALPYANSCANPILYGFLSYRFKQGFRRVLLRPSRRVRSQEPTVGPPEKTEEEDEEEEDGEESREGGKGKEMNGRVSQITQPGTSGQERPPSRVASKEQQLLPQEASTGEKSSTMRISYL
Experiment: not given
Details: not given
In the case of `CCOC(=O)c1cccc(C2(c3cnn(C)c3)N[C@@H](c3nc(-c4ccc(F)cc4)c[nH]3)Cc3c2[nH]c2ccccc32)n1` (single isomer, unassigned; 6B) [listing 1 of 2 here], half-maximal inhibition (IC50) required 5.36 nM.
`CCOC(=O)c1ccc(C2(c3cnn(C)c3)N[C@@H](c3nc(-c4ccc(F)cc4)c[nH]3)Cc3c2[nH]c2ccccc32)nc1` (single isomer, unassigned; 9A) [listing 1 of 2 here] showed an IC50 of 5.25 nM.
As to `CCOC(=O)c1ccc(C2(c3cnn(C)c3)N[C@@H](c3nc(-c4ccc(F)cc4)c[nH]3)Cc3c2[nH]c2ccccc32)nc1` (single isomer, unassigned; 9B) [listing 1 of 2 here], the IC50 came out at 31.6 nM.

In another assay the target is T1, Somatostatin receptor type 3.
Experiment: not given
Type of assay: cell-based, CHO.
Details: not given
On to `CCOC(=O)c1cccc(C2(c3cnn(C)c3)N[C@@H](c3nc(-c4ccc(F)cc4)c[nH]3)Cc3c2[nH]c2ccccc32)n1` (single isomer, unassigned; 6B) [listing 1 of 2 here], for which it took 0.7 nM to reach half-maximal inhibition (IC50).

The next assay concerns the target T2, Somatostatin receptor type 3. The assay can be described thus: biochemical.
Details: not given
In the case of `CCOC(=O)c1cccc(C2(c3cnn(C)c3)N[C@@H](c3nc(-c4ccc(F)cc4)c[nH]3)Cc3c2[nH]c2ccccc32)n1` (single isomer, unassigned; 6B) [listing 1 of 2 here], the IC50 was determined as 1.52 nM.
The compound `CCOC(=O)c1ccc(C2(c3cnn(C)c3)N[C@@H](c3nc(-c4ccc(F)cc4)c[nH]3)Cc3c2[nH]c2ccccc32)nc1` (single isomer, unassigned; 9A) [listing 1 of 2 here] showed an IC50 of 1.72 nM.
`CCOC(=O)c1ccc(C2(c3cnn(C)c3)N[C@@H](c3nc(-c4ccc(F)cc4)c[nH]3)Cc3c2[nH]c2ccccc32)nc1` (single isomer, unassigned; 9B) [listing 1 of 2 here] showed an IC50 of 2.91 nM.

One may read the IC50 as the point on the concentration scale where inhibition reaches its midpoint. As a reminder, the inhibition is the change of the read-out against control, counted positive when it falls.

For the origin of these results see ChEMBL document CHEMBL3352784, “Investigation of Cardiovascular Effects of Tetrahydro-β-carboline sstr3 antagonists” (ACS Med Chem Lett, 2014).
